{"source": "paper PMC7002685", "about": "“Inhibition of vascular calcification by inositol phosphates derivatized with ethylene glycol oligomers” (Nature Communications, 2020)", "key": {"[1]": {"assay": "Serum calcification propensity assay after 4.5 h incubation in enzymatically active human serum", "conditions": "compound at c350 concentration, 37 °C; individual donors, Fig. 2e"}, "[2]": {"tested_on": "transformation of CPP1 to CPP2 in pooled human serum", "assay": "In vitro serum calcification propensity (T50) screening assay", "assay_type": "biochemical", "parameters": "key to T50: T50 in minutes (time to 50% CPP phase transition)", "conditions": "for T50: one value per experiment; for activity/unit mass: mean c350 x mw (Na salt); for concentration upon which a T50 of 350 min is reached (c350), mean: mean of n experiments; for concentration upon which a T50 of 350 min is reached (c350), single experiment: one value per experiment (lab journal reference E05-E40)", "protocol": "The compounds were ranked for calcification inhibition activity using a nanoparticle-based test, developed for risk stratification, which measures the propensity for calcification in patient serum. […] The time, after which 50% of CPP phase transition occurred (T50), was assessed by time-resolved spectrophotometry at 550 nm (Supplementary Fig. 1a).\nThe screening assay was performed as described previously. In brief, pooled human serum (H4522, Sigma-Aldrich) stored at −20 °C was thawed at 37 °C, centrifuged (10,000 × g, and 4 °C, 30 min) (5427R, Eppendorf, Switzerland), and sterile filtered (0.22 μm filter, Millipore, Merck KGaA) to remove potential cryoprecipitates (cleared human serum). The calcium solution was 40 mM CaCl2 (102382, Merck KGaA) in HBS, pH 7.4 (RT) (100 mM HEPES (H3375, Sigma-Aldrich) and 140 mM NaCl (1734712, Fisher Scientific, Hampton, NH, USA)). […] All salt solutions and buffers were double sterile filtered (0.22 µm) and pre-warmed to 37 °C prior to use. […] The plate was sealed with an adhesive film and the absorption at 550 nm was measured every 3 min with 1 min in-between shaking for a total of 300 cycles at 37 °C using the infinite M200 microplate reader (Tecan, Männedorf, Switzerland). An A550 vs. time graph was generated and T50 (min) (time at half-maximum transition from CPP1 to CPP2) values were derived by sigmoidal curve fit using Prism 8 (nonlinear regression in the log(agonist) vs. response–variable slope (four parameter mode) using the robust fit fitting method, GraphPad Software, San Diego, CA, USA). Activities between compounds were compared by generating a T50 (min) vs. concentration (µM) graph, calculating nonlinear regression and deriving the concentration required to delay T50 to 350 min (c350) using a standard equation for the dose–response curve, Eq. (1), whereby x = [compound], y = time (min), bottom = baseline response, top = maximum response, T50 = [drug] that leads to half-maximum response, and the hill slope is a factor that describes the steepness of the curve.1 y= bottom+top - bottom/1+T50/x^hillslope."}, "CPP2": {"biological_target": "CPP2", "assay": "Competitive 18F-NaF binding assay on CPPs", "parameters": "species or system human", "protocol": "A ^18F-NaF-based competitive binding assay was developed to indirectly assess the inhibitor affinity (IC50) to CPPs. The uptake mechanism of ^18F-NaF, a marker of micro-calcification activity by chemisorption onto hydroxyapatite crystals, is contingent on the rapid exchange of hydroxyl (OH^−) groups present on the hydroxyapatite surface (Ca5(PO4)3(OH)) by ^18F^− to form fluoroapatite (Ca5(PO4)3^18F)[34],[54].\nTriplicate aliquots of CPP2s (20 µg Ca/mL) in 100 μL assay buffer (100 mM HBS, pH 7.4 (RT)) were incubated for 1 h at RT in the presence of increasing concentrations of compounds in 50 μL Milli-Q water and ^18F-NaF (1 nM) in 50 μL assay buffer, resulting in a total incubation volume of 200 μL (^18F-NaF was prepared using a FASTlab synthesizer (GE Healthcare, Little Chalfont, UK) and commercially available ^18F-NaF cassettes (GE Healthcare)). Maximum radiotracer binding was determined by incubating CPP2s with ^18F-NaF (1 nM) only. The reaction was terminated by rapid filtration through a SOLAμ™ SPE plate (HRP 2 mg/mL 96-well plate, 22 μm; Thermo Fisher Scientific). SPE individual column matrices were washed twice rapidly in assay buffer and radioactivity on the filters determined by an automatic gamma counter (Wizard2 Gamma Counter, Perkin Elmer, Waltham, MA, USA). […] IC50 is the concentration of […] that gives a response half way between the bottom and top parts of the curve. ^18F-NaF micro-PET/computed tomography (micro-PET/CT) was employed for ex vivo analysis of (OEG2)2-IP4’s engagement to target calcified human tissue explants, as described previously. […] Following incubations, samples were washed twice in 0.1 M PBS (1 min per wash) and mounted on a Petri dish for micro-PET/CT imaging (nanoPET/CT, Mediso, Budapest, Hungary). In total, seven samples from the femoral arteries of three patients with ischemic peripheral disease and three samples from native aortic valves of three patients undergoing valve replacement surgery were used. All samples were collected at the time of surgery and stored in 4% paraformaldehyde at RT until further use. All patients gave their written, informed consent. All procedures had local ethical approval (06/S0703/110, 12/WS/0227, 09/S0703/118, and 12/NW/0036). All studies were approved by East and West Scotland Research Ethics Committees, and all experiments were conducted according to the principles expressed in the Declaration of Helsinki."}}, "note": "Several values for one entry are separate records, joined by “and”; a condition that tells them apart may be missing. Identical values can stand only once.", "data": [{"smiles": "COCCOCCOCCOCCOCCOCCOCCOCCOCCOCCOCCO[C@@H]1[C@@H](OP(=O)(O)O)[C@H](OCCOCCOCCOCCOCCOCCOCCOCCOCCOCCOCCOC)[C@@H](OP(=O)(O)O)[C@@H](OP(=O)(O)O)[C@H]1OP(=O)(O)O", "note": "[(OEG11)2-IP4, 4,6-Di-O-(methoxy-undecaethyleneglycol)-myo-inositol-1,2,3,5-tetrakis(phosphate)]", "values": [{"measurement": "ΔT50 after 4.5 h vs 0 h incubation in enzymatically active human serum", "setting": "[1]", "value": "-7 min and 2 min and 28 min and -24 min"}, {"measurement": "T50", "setting": "[2]; concentration 0.3 μM", "value": "225.5 and 216.3 and 217.233"}, {"measurement": "T50", "setting": "[2]; concentration 1 μM", "value": "254.967 and 243.067 and 240.833"}, {"measurement": "T50", "setting": "[2]; concentration 3 μM", "value": "330.833 and 306.033 and 295.1"}, {"measurement": "T50", "setting": "[2]; concentration 5 μM", "value": "429.233 and 399.933 and 420.733"}, {"measurement": "fold greater molar activity in delaying serum calcification propensity than IP6", "setting": "[2]; from c350", "value": "~10", "unit": "fold"}, {"measurement": "activity/unit mass", "setting": "[2]", "value": 6.28, "unit": "mg/L"}, {"measurement": "concentration upon which a T50 of 350 min is reached (c350), mean", "setting": "[2]", "value": 3.8, "unit": "µM"}, {"measurement": "concentration upon which a T50 of 350 min is reached (c350), single experiment", "setting": "[2]", "value": "3.4 µM and 3.9 µM"}]}, {"smiles": "NCCCC(O)(P(=O)(O)O)P(=O)(O)O", "note": "[Alendronate, alendronate]", "values": [{"measurement": "IC50", "setting": "CPP2; CPP2 20 µg Ca/mL, 18F-NaF 1 nM, 1 h RT, read-out: IC50 (reduction of 18F binding to CPP)", "value": 900, "unit": "nM"}, {"measurement": "18F-NaF percentage binding to CPP2", "setting": "CPP2; concentration 0.75 (unit not given)", "value": "116.838% and 100.543% and 117.872%"}, {"measurement": "18F-NaF percentage binding to CPP2", "setting": "CPP2; concentration 2.5 (unit not given)", "value": "108.056% and 108.706% and 117.126%"}, {"measurement": "18F-NaF percentage binding to CPP2", "setting": "CPP2; concentration 7.5 (unit not given)", "value": "96.3113% and 120.411% and 97.661%"}, {"measurement": "18F-NaF percentage binding to CPP2", "setting": "CPP2; concentration 25 (unit not given)", "value": "95.6416% and 106.619%"}, {"measurement": "18F-NaF percentage binding to CPP2", "setting": "CPP2; concentration 75 (unit not given)", "value": "102.247% and 106.699% and 103.897%"}, {"measurement": "18F-NaF percentage binding to CPP2", "setting": "CPP2; concentration 250 (unit not given)", "value": "99.9294% and 104.809% and 85.4465%"}, {"measurement": "18F-NaF percentage binding to CPP2", "setting": "CPP2; concentration 1750 (unit not given)", "value": "35.8884% and 43.4211% and 42.6767%"}, {"measurement": "18F-NaF percentage binding to CPP2", "setting": "CPP2; concentration 2500 (unit not given)", "value": "62.647% and 51.2379% and 44.8192%"}, {"measurement": "18F-NaF percentage binding to CPP2", "setting": "CPP2; concentration 7500 (unit not given)", "value": "62.7542% and 48.4658% and 45.2944%"}, {"measurement": "18F-NaF percentage binding to CPP2", "setting": "CPP2; concentration 25000 (unit not given)", "value": "44.4078% and 32.6852% and 32.8795%"}, {"measurement": "18F-NaF percentage binding to CPP2", "setting": "CPP2; concentration 75000 (unit not given)", "value": "35.0722% and 24.2405% and 29.2905%"}, {"measurement": "18F-NaF percentage binding to CPP2", "setting": "CPP2; concentration 250000 (unit not given)", "value": "26.7145% and 19.4967% and 18.0105%"}, {"measurement": "18F-NaF percentage binding to CPP2", "setting": "CPP2; concentration 750000 (unit not given), replicates Fig. 2c", "value": "36.7136% and 30.5284% and 26.7151%"}, {"measurement": "T50", "setting": "[2]; concentration 0.3 μM", "value": "213.8 and 221.6 and 208.733 and 230.4 and 221.333 and 196.833"}, {"measurement": "T50", "setting": "[2]; concentration 1 μM", "value": "222.967 and 230.933 and 225.333 and 238.6 and 229.833 and 230.667"}, {"measurement": "T50", "setting": "[2]; concentration 3 μM", "value": "261.733 and 253 and 230.467 and 264.833 and 255.1 and 255.367"}, {"measurement": "T50", "setting": "[2]; concentration 10 μM", "value": "345.567 and 345.233 and 327.433 and 380.1 and 360.1 and 348.633"}, {"measurement": "T50", "setting": "[2]; concentration 30 μM", "value": "770.3 and 707.4"}, {"measurement": "activity/unit mass", "setting": "[2]", "value": 2.69, "unit": "mg/L"}, {"measurement": "concentration upon which a T50 of 350 min is reached (c350), mean", "setting": "[2]", "value": 9.9, "unit": "µM"}, {"measurement": "concentration upon which a T50 of 350 min is reached (c350), single experiment", "setting": "[2]", "value": "9.9 µM and 10.3 µM and 8.3 µM and 9.4 µM and 10.2 µM"}]}]}
